Laboratory results published in US20230398134A1, “SOLID DISPERSIONS OF CANNABIDIOL” (INDENA S.P.A., priority 2020, published 2023).

What was measured:
[1] = Solubility in fasted-state simulated intestinal fluid (FaSSIF, pH 6.5); assay type: physicochemical; conditions: FaSSIF pH 6.5, excess solid, 2 hours stirring at room temperature, filtered 0.45 μm
Procedure: (§1) The solubility of the solid powder dispersion of CBD 2, prepared as described in Example 1, was evaluated in simulated biological fluids. […] For the purposes of the present description, the term “mechanical mixture” means a combination of one or more solids amalgamated by mixing techniques not involving the use of any solvent.
(§2) The solubility studies in different biologically relevant media of the solid dispersion prepared according to Example 1 were conducted to evaluate its behaviour in the intestine under fed and fasted conditions. The solubility studies were conducted in FaSSIF (pH 6.5) and FeSSIF (pH 5).
(§3) 10-20 mL of FaSSIF and FeSSIF were placed in 40 mL glass vials. An amount of solid dispersion prepared according to Example 1, and an amount of mechanical mixture prepared according to Example 2, in excess of the expected saturated solubility, was added to the vials; the resulting mixtures were maintained under stirring for 2 hours at room temperature. The mixtures were filtered through 0.45 μm PTFE membrane filters. The filtered solutions were analysed with HPLC instrumentation.
10-20 mL of FaSSIF was placed in 40 mL glass vials. […] The mixtures were filtered through 0.45 μm PTFE membrane filters. The filtered solutions were analysed with HPLC instrumentation.

[2] = Solubility in fed-state simulated intestinal fluid (FeSSIF, pH 5); assay type: physicochemical; conditions: FeSSIF pH 5, excess solid, 2 hours stirring at room temperature, filtered 0.45 μm, HPLC (Table 2)
Procedure: as §1, §2, §3

C=C(C)[C@@H]1CCC(C)=C[C@H]1c1c(O)cc(CCCCC)cc1O [Cannabidiol 2, 2-[(1R,6R)-3-methyl-6-(prop-1-en-2-yl)-cyclohex-2-enyl]-5-pentylbenzen-1,3-diol]
Cannabidiol 2 (mg/mL) concentration ([1]; HPLC (Table 2)): 0.067 mg/mL | Cannabidiol 2 (mg/mL) concentration ([1]; HPLC (Table 3)): 0.067 mg/mL | Cannabidiol 2 (mg/mL) concentration [2]: 0.278 mg/mL
